Source: patent US10399964B2, “Coumarin-linked taxanes for detection and circumvention of cellular efflux” (The University of Kansas, priority 2017, dated 2019)
“Also recorded” adds a separate entry of the source.

Columns and labels:
HeLa cells = assay: Subcellular distribution and colocalization by confocal microscopy in living HeLa cells; assay type: cell-based; conditions: for subcellular distribution / colocalization: confocal microscopy, 1 h; for binding to microtubules in cells: HeLa cells transfected with mCherry-tubulin
Procedure: To examine the subcellular distribution of Compound 1, HeLa cells were imaged by confocal laser scanning microscopy (FIGS. 5A, 5B, and 5C). […] The distinct spectral profiles of PB and OG were used to further examine colocalization of Compound 1 and Flutax-2® (FIG. 5C).
The experiment was conducted by 1 hour incubation with HeLa cells, followed by a wash and then imaging using a 25% laser power with excitation at 405 nm and emission at 425-500 nm.
The studies compared the potency as an endoplasmic reticulum probe with commercial ER probe ER Tracker Blue-White DPX. […] Panels A and B used 1 nM of the compounds, Panels A1 and B1 used 10 nM of the compounds, Panels A2 and B2 used 100 nM of the compounds, and Panels A3 and B3 used 1 μM of the compounds.
As such, Compound 2 (PB-β-Ala-Taxol) was compared to iPr-Rhodol-β-Ala-Taxol with HeLa cells transfected with mCherry-tubulin.

[1] = test system: HeLa cervical carcinoma cells; assay: Cytotoxicity, cellular viability by flow cytometry, HeLa; conditions: for relative toxicity (cellular viability versus concentration) / IC50: HeLa cells; for relative toxicity (cellular viability versus concentration): FIG. 9; for IC50: 48 h
Procedure: The cytotoxicity of the taxane PB fluorophores towards HeLa cervical carcinoma cells (FIGS. 4A and 4B) was evaluated. These cell lines were treated for 48 h, cellular viability was analyzed by flow cytometry, and paclitaxel was used as a positive control.
The IC50s were also determined.

P-gp in HeLa cells = P-gp in HeLa cells (Homo sapiens, UniProt P08183); assay: P-gp efflux: cellular fluorescence with or without verapamil by flow cytometry, HeLa; conditions: probe 1 μM
P-gp in HCT-15 cells = P-gp in HCT-15 cells (Homo sapiens, UniProt P08183); assay: P-gp efflux: cellular fluorescence with or without verapamil by flow cytometry, HCT-15; conditions: probe 1 μM
Procedure: Studies were conducted to investigate the efflux of Compound 1 in HCT-15 cells that express high levels of P-gp. Compound 1 was compared with rhodamine 123 (Rho123), a common P-gp substrate that accumulates in mitochondria.

[2] = target: cross-linked microtubules from bovine brain; assay: Affinity for cross-linked microtubules by fluorescence enhancement; conditions: GAB buffer (pH 6.5); equilibrium binding curves; excitation 405 nm; read-out: apparent Kd
Procedure: PB was excited at 405 nm and emitted photons were collected at and above 450 nm.
Experiments were conducted to obtain the measured affinities of Compounds 1-3 for cross-linked microtubules from bovine brain using a fluorescence enhancement method (FIG. 2). […] PB was excited at 405 nm and emitted photons were collected at and above 450 nm.

HCT-15 cells = assay: Cytotoxicity, cellular viability by flow cytometry, HCT-15; assay type: cell-based; conditions: for IC50: Homo sapiens, HCT-15, 48 h, 48 h
[3] = test system: HeLa, Ramos, Raji, HL-60, and Jurkat cell lines; assay: Uptake into different cell lines by flow cytometry; assay type: cell-based; conditions: 1 μM, 1 h, 200,000 cells/200 μL; verapamil 0, 25, 100 μM
Procedure: The uptake of Compound 1 (PB-Gly-Taxol, at 1 μM, 1 h, 200,000 cells/200 μL) by different cell lines was studied and quantified by using flow cytometry.

Chain of P-gp in HCT-15 cells (P08183 whole entry): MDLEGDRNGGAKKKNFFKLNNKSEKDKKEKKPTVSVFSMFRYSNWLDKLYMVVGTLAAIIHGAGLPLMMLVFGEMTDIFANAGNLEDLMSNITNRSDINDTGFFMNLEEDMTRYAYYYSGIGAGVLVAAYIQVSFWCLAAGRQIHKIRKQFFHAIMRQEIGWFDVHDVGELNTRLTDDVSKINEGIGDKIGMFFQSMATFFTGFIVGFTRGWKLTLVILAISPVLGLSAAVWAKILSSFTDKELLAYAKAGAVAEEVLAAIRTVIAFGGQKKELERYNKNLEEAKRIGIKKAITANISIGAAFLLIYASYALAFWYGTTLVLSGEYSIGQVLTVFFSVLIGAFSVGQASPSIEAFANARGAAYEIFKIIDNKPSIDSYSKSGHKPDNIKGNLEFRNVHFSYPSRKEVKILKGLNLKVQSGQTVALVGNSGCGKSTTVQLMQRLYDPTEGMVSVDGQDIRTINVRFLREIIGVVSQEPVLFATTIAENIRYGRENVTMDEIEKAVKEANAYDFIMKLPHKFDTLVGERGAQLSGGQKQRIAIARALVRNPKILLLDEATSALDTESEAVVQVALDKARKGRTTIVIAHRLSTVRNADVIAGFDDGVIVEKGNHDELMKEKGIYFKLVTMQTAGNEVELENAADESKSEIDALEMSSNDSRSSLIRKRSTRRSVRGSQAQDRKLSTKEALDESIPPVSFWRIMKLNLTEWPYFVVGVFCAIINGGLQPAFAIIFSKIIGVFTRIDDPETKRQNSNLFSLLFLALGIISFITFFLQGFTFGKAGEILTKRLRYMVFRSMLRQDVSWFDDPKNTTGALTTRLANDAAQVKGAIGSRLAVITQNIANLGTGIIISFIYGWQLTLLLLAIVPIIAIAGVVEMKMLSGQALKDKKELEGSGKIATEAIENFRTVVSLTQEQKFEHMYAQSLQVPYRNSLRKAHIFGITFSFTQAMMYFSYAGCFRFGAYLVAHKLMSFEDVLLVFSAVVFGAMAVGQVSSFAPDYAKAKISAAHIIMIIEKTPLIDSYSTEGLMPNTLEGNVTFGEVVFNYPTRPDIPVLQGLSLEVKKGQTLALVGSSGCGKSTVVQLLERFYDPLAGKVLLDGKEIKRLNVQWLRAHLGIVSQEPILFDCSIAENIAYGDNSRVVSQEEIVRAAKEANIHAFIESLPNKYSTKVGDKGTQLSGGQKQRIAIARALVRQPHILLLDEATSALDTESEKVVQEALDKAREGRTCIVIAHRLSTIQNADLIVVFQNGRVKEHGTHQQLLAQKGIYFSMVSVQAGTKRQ
Chain of P-gp in HeLa cells (P08183 whole entry): as above

For PB-NHMe-Gly-Taxol [Compound 21], the “potency as endoplasmic reticulum probe” value (HeLa cells; living HeLa cells, 1 nM to 1 μM, versus ER Tracker Blue-White DPX) was “more potent as an endothelium reticulum probe compared to ER Tracker Blue-White DPX”, the “subcellular distribution / colocalization” value (HeLa cells; living HeLa cells) was “does not appear to colocalize with Flutax-2® on microtubules” and the “subcellular distribution / colocalization” value (HeLa cells; living HeLa cells, listed as PB-NHMe-Gly-Taxol) was “accumulate in the endoplasmic reticulum; also recorded: colocalizes with the red fluorescent endoplasmic reticulum probe HRA”. The “relative toxicity (cellular viability versus concentration)” value [1] was “less toxic than paclitaxel”.

`CC(=O)O[C@H]1C(=O)[C@@]2(C)C([C@H](OC(=O)c3ccccc3)[C@]3(O)C[C@H](OC(O)[C@H](O)[C@@H](NC(=O)c4ccccc4)c4ccccc4)C(C)=C1C3(C)C)[C@]1(OC(C)=O)CO[C@@H]1C[C@@H]2OC(=O)CCNC(=O)c1ccc(-c2c3cc(F)c(=O)cc-3oc3cc(NC(C)C)c(F)cc23)c(C)c1` (stereo partly drawn) [iPr-Rhodol-β-Ala-Taxol, reference compound] was tested, and the “binding to microtubules in cells” value (HeLa cells) was “does not bind extensively to microtubules”, the “subcellular distribution / colocalization” value (HeLa cells; living HeLa cells) was “appears to accumulate predominantly in the endoplasmic reticulum” and the “cytotoxicity (in words)” value [1] was “without engendering substantial cytotoxicity”.

rhodamine 123 [Rho123] was tested, and the “detection of low levels of P-gp activity” value (P-gp in HeLa cells) was “undetectable”, the “increase of cellular fluorescence in presence of verapamil” value (P-gp in HCT-15 cells; verapamil 25 μM) was 3 fold and the “increase of cellular fluorescence in presence of verapamil” value (P-gp in HCT-15 cells; verapamil 100 μM) was 3 fold.

With `CC(=O)OC1C(=O)C2(C)C(OC(=O)CCNC(=O)c3cc4cc(F)c(O)c(F)c4oc3=O)CC3OCC3(OC(C)=O)C2C(OC(=O)c2ccccc2)C2(O)CC(OC(=O)C(O)C(NC(=O)c3ccccc3)c3ccccc3)C(C)=C1C2(C)C` (stereo not drawn) [Compound 2, PB-β-Ala-Taxol] the “binding to microtubules in cells” value (HeLa cells) was “can bind to microtubules better than when paclitaxel is coupled to a different fluorophore” and the Kd [2] was 63 ± 8 nM.

PB-NH2-Gly-Taxol [Compound 22] was tested, and the “subcellular distribution / colocalization” value (HeLa cells; living HeLa cells) was “accumulate in the endoplasmic reticulum”.

In the case of Flutax-2® [reference compound], the “subcellular distribution / colocalization” value (HeLa cells; living HeLa cells) is reported as “punctate fluorescence that did not co-localize with Compound 1 on microtubules” and the IC50 ([1]; presence of verapamil (25 μM)) is reported as 1310 nM.

`CC(=O)OC1C(=O)C2(C)C(OC(=O)CNC(=O)c3cc4cc(F)c(O)c(F)c4oc3=O)CC3OCC3(OC(C)=O)C2C(OC(=O)c2ccccc2)C2(O)CC(OC(=O)C(O)C(NC(=O)c3ccccc3)c3ccccc3)C(C)=C1C2(C)C` (stereo not shown) [Compound 1, PB-Gly-Taxol] was tested, and the “subcellular distribution / colocalization” value (HeLa cells; living HeLa cells) was “bound microtubules with very high specificity”, the Kd [2] was 34 ± 6 nM and the IC50 (HCT-15 cells; with verapamil (25 μM)) was 90 nM. The IC50 (HCT-15 cells; without verapamil) was 3700 nM, the “enhancement of toxicity by verapamil” value (HCT-15 cells; verapamil 25 μM versus none) was 41 fold and the “effect of verapamil on uptake” value [3] was “the inclusion of verapamil increased the uptake”. The “relative toxicity (cellular viability versus concentration)” value [1] was “less toxic than PB-NHMe-Gly-Taxol (Compound 21); also recorded: less toxic than paclitaxel”, the IC50 ([1]; Homo sapiens, HeLa, absence of verapamil) was 120 nM and the IC50 ([1]; Homo sapiens, HeLa, presence of verapamil (25 μM)) was 60 nM.

Work on `CC(=O)OC1C(=O)C2(C)C(OC(=O)CCCNC(=O)c3cc4cc(F)c(O)c(F)c4oc3=O)CC3OCC3(OC(C)=O)C2C(OC(=O)c2ccccc2)C2(O)CC(OC(=O)C(O)C(NC(=O)c3ccccc3)c3ccccc3)C(C)=C1C2(C)C` (stereo not shown) [Compound 3, PB-GABA-Taxol] yielded a Kd [2] of 265 ± 54 nM.
